Measured values published in US10611732B2, “HIV replication inhibiting pyrimidines” (Janssen Pharmaceutica NV, priority 2001, dated 2020).

How the values were obtained:
HIV = assay: microbe, parasite or virus in culture; conditions: for IC50: Human immunodeficiency virus 1, MT4, read-out: pIC50 (−log IC50), HIV-infected MT-4 cells (converted); for IC50 / pIC50 (−log IC50): dose achieving 50% protection, MTT, OD 540 nm; for pSI (pCC50-pIC50): selectivity index, ratio of CC50 to IC50, as log difference; for pIC50 (−log IC50): HIV-infected MT-4 cells
Method: (§1) A rapid, sensitive and automated assay procedure was used for the in vitro evaluation of anti-HIV agents. An […] T4-cell line, MT-4, which was previously shown (Koyanagi et al., Int. J Cancer, 36, 445-451, 1985) to be highly susceptible to and permissive for HIV infection, served as the target cell line. Inhibition of the HIV-induced cytopathic effect was used as the end point. The viability of both HIV- and mock-infected cells was assessed spectrophotometrically via the in situ reduction of 3-(4,5-dimethylthiazol-2-yl)-2,5-diphenyltetrazolium bromide (MTT). The 50% cytotoxic concentration (CC50 in M) was defined as the concentration of compound that reduced the absorbance of the mock-infected control sample by 50%. The percent protection achieved by the compound in HIV-infected cells was calculated by the following formula:
(§2) [formula] whereby (ODT)HIV is the optical density measured with a given concentration of the test compound in HIV-infected cells; (ODC)HIV is the optical density measured for the control untreated HIV-infected cells; (ODC)MOCK is the optical density measured for the control untreated mock-infected cells; all optical density values were determined at 540 nm. The dose achieving 50% protection according to the above formula was defined as the 50% inhibitory concentration (IC50 in M). The ratio of CC50 to IC50 was defined as the selectivity index (SI).
(§3) Table 6 lists the pIC50 (−log IC50), pCC50 (−log CC50) and pSI (pCC50-pIC50) values for the compounds of formula (I).

[1] = cytotoxicity in mock-infected MT-4 cells (MTT); conditions: human, mock-infected MT-4 cells
Method: as §1, §2, §3

mock-infected MT-4 cells = assay: cytotoxicity in mock-infected MT-4 cells (MTT)
Method: as §1, §2, §3

SMILES	melting point	IC50 (HIV)	pSI (pCC50-pIC50) (HIV)	CC50 [1]	pIC50 (−log IC50) (HIV)	pCC50 (−log CC50) (mock-infected MT-4 cells)
Cc1cc(/C=C\Cl)cc(C)c1Nc1ccnc(Nc2ccc(C#N)cc2)n1	250 °C					
Cc1cc(C=C(Br)Br)cc(C)c1Nc1ccnc(Nc2ccc(C#N)cc2)n1	223 °C					
CCCCN(C)C(=O)/C=C/c1cc(C)c(Oc2ccnc(Nc3ccc(C#N)cc3)n2)c(C)c1	212 °C					
Cc1ccc(N(C)C)c(C)c1Nc1ccnc(Nc2ccc(C#N)cc2)n1	132 °C					
Cc1cc(/C=C/c2cccnc2)cc(C)c1Nc1ccnc(Nc2ccc(C#N)cc2)n1	120 °C					
Cc1cc(C(=O)CC#N)cc(C)c1Nc1ccnc(Nc2ccc(C#N)cc2)n1	150 °C					
CCOCc1ccc(Oc2ccnc(Nc3ccc(C#N)cc3)n2)c(C)c1 [Compound 105]	140 °C	63.1 nM	<−3.2			
Cc1cc(/C=C(/C#N)C(=O)C(C)(C)C)cc(C)c1Nc1ccnc(Nc2ccc(C#N)cc2)n1 [Compound 106]	193 °C	20 nM	−2.5			
Cc1cc(/C=C(/F)C#N)cc(C)c1Oc1ccnc(Nc2ccc(C#N)cc2)n1 [Compound 110]	254 °C	2.51 nM	−4.3	50.1 µM		
Cc1cc(/C=C/C(=O)N(C)C)cc(C)c1Nc1ccnc(Nc2ccc(C#N)cc2)n1 [Compound 112]	> 264 °C	0.794 nM	−4.2			
Cc1cc(/C=C/C(=O)N(C)CCC#N)cc(C)c1Nc1ccnc(Nc2ccc(C#N)cc2)n1 [Compound 114]	168 °C	2.51 nM	−3.5			
Cc1cc(-c2ccc(C#N)o2)cc(C)c1Nc1ccnc(Nc2ccc(C#N)cc2)n1 [Compound 126]	> 260 °C	3.98 nM	−3.5			
CC(C#N)=Cc1ccc(Oc2ccnc(Nc3ccc(C#N)cc3)n2)c(C)c1 [Compound 231]			<−5.2		9.2	<4.0 M
CC(=CC#N)c1ccc(Oc2ccnc(Nc3ccc(C#N)cc3)n2)c(C)c1 [Compound 232]			<−4.4		8.4	<4.0 M
CC(C#N)=Cc1cc(C)c(Nc2ccnc(Nc3ccc(C#N)cc3)n2)c(Cl)c1 [Compound 233]			−3.6		9.3	5.7 M
Cc1cc(CCC#N)ccc1Oc1ccnc(Nc2ccc(C#N)cc2)n1 [Compound 234]			<−4.7		8.7	<4.0 M
Cc1cc(C(C)CC#N)ccc1Oc1ccnc(Nc2ccc(C#N)cc2)n1 (stereo not shown) [Compound 235]			<−5.3		9.3	<4.0 M
Cc1cc(CC(C)C#N)ccc1Oc1ccnc(Nc2ccc(C#N)cc2)n1 (stereo not shown) [Compound 236]			<−4.8		8.8	<4.0 M
Cc1cc(/C=C/C#N)ccc1Nc1ccnc(Nc2ccc(C#N)cc2)n1 [Compound 237]			<−4.9		8.9	<4.0 M
Cc1cc(CC#N)cc(Cl)c1Nc1ccnc(Nc2ccc(C#N)cc2)n1 [Compound 238]			−3.9		9.5	5.6 M
Cc1cc(/C=C/C#N)cc(-c2ccco2)c1Nc1ccnc(Nc2ccc(C#N)cc2)n1 [Compound 239]			−3.9		8.9	5 M
Cc1cc(CN(C)CCC#N)cc(Br)c1Nc1ccnc(Nc2ccc(C#N)cc2)n1 [Compound 241]			−4.1		9.4	5.3 M
N#C/C=C/c1ccc(Nc2ccnc(Nc3ccc(C#N)cc3)n2)c(Br)c1 [Compound 244]			−5.2		9.2	4 M
COc1cc(/C=C/C#N)ccc1Nc1ccnc(Nc2ccc(C#N)cc2)n1 [Compound 245]			−4.8		8.8	4 M
CC(C#N)=Cc1cc(C)c(Nc2ccnc(Nc3ccc(C#N)cc3)n2)c(Br)c1 [Compound 247]			−3		9.2	6.2 M
Cc1cc(/C=C/C#N)cc(Br)c1Nc1ccnc(Nc2ccc(C#N)cc2)n1 [Compound 248]			−3.5		9.3	5.7 M
COc1cc(C=C(C)C#N)ccc1Nc1ccnc(Nc2ccc(C#N)cc2)n1 [Compound 249]			−4.5		8.5	4 M
COc1cc(CCC#N)ccc1Nc1ccnc(Nc2ccc(C#N)cc2)n1 [Compound 251]			−3.9		8.9	5 M
